Assay results from US12263248B2, “Compounds and compositions for intracellular delivery of therapeutic agents” (ModernaTX, Inc., priority 2018, dated 2025).

Columns and labels:
luciferase (Luc) mRNA [1] = assay: Luc expression, whole body bioluminescence after intravenous administration to mice; format: in vivo; settings: for Total Flux 3 hours / Total Flux 6 hours / Total Flux 24 hours: Luc mRNA
Procedure, shortened: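 Bioluminescence, read as region-of-interest total flux at 3, 6 and 24 h, followed a single 0.5 mg/kg intravenous dose of Luc mRNA-loaded nanoparticles in mice (n=6). Luciferin substrate (200 μL, 15 mg/mL in PBS) was injected intraperitoneally into CD-1 mice 15 minutes ahead of each imaging point.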

luciferase (Luc) mRNA [2] = assay: Luc expression in liver, lung, spleen and femur 6 hours after intravenous administration; format: in vivo; settings: mice, 0.5 mpk; for Total Flux Femur / Total Flux Liver / Total Flux Lung / Total Flux Spleen: intravenous
Procedure, shortened: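 LNP-formulated mRNA given IV to mice (n=3) at 0.5 mpk; at 6 h, bioluminescence imaged ex vivo 15 min after IP D-luciferin (15 mg/mL, 200 μL), organs imaged within 25 min. Values are total flux by region of interest.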

sC5b-9 = assay: Complement activation in vitro (sC5b-9 levels); format: cell-based; settings: human cells contacted in vitro
Method: Complement activation assists in the clearance of pathogens from an organism. As it is undesirable that a subject's body recognize a nanoparticle composition as a foreign invader, low complement system activation upon administration of such a composition is preferred. The complex sC5b-9 is a marker for the activation of the complement system. Thus, human cells were contacted in vitro with nanoparticle compositions according to Table 1A and were evaluated for sC5b-9 levels.

[3] = Encapsulation efficiency of RNA (QUANT-IT RIBOGREEN RNA assay); format: physicochemical; settings: for EE (%): Table 1A
Procedure, shortened: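 RiboGreen fluorescence (ex ~480, em ~520 nm) compared between intact samples and Triton X-100-lysed samples after 15 min at 37 °C in TE buffer, pH 7.5. Percent free RNA is the blank-corrected intact/disrupted ratio.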

IL-6, IP-10 = assay: Cytokine induction in mice upon intravenous administration; format: in vivo; set-up: Cytokine induction IL-6 / Cytokine induction IP-10: unit not given here; settings: 0.5 mpk, 6 hours; for Cytokine induction IL-6 / Cytokine induction IP-10: intravenous
Procedure, shortened: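 IL-6 and IP-10 concentrations determined 6 hours after a single intravenous 0.5 mpk dose of lipid nanoparticle formulation in mice, with MC3 and PBS as comparators.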

[4] = Apparent (surface) pKa of the LNP formulation (TNS assay); format: physicochemical; settings: Table 1A
Procedure, shortened: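 Fluorescence of TNS probe added to LNP samples (mRNA 0.04 mg/mL) was read across 21 buffers of pH about 3-12, triplicate per pH. The inflection point of the sigmoidal fluorescence-vs-pH curve, […], gives apparent pKa; method validated in 1× PBS and Tris/sucrose buffer.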

[5] = Particle size and polydispersity index of nanoparticle compositions (Zetasizer Nano ZS); format: physicochemical; settings: for Size (nm): lipid:DSPC:cholesterol:PEG-DMG 50:10:38.5:1.5 mol %
Procedure, shortened: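 Zetasizer Nano ZS; samples in 1×PBS; read-out: particle size plus polydispersity index.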

hEPO mRNA = assay: Pretreatment study in Cynomolgus monkeys (standard MC3 formulation, hEPO mRNA); format: in vivo; settings: MC3 formulation once weekly for four weeks
Method: The effects of pretreatment to non-human primates were evaluated using a standard MC3 formulation including an mRNA encoding hEPO. Male monkeys were administered the nanoparticle composition once weekly for four weeks at a dose rate of 5 ml/kg/h and were pretreated with either methotrexate or dexamethasone.
As shown, in the absence of any pretreatment, maximal expression levels decreased nearly 70% over the course of the study.

[6] = N/P 3, i.v. bolus at 5 mpk, Sprague Dawley rats; 5 mg/kg
Method: Sprague Dawley rats were administered with nanoparticles of the disclosure via i.v. bolus at 5 mpk. The nanoparticle contained two mRNA encoding a broadly neutralizing influenza antibody in a 2:1 ratio.

human hepatocytes = assay: Metabolite profiling of Compound 18 with human hepatocytes; format: in vitro ADME; set-up: key to Detection in incubation: +: Detected; ND: Not detected; settings: for Detection in incubation: Compound 18 (10 μM), human hepatocytes
Method: The results of metabolic profiling and characterization for compound 18 incubated with human hepatocytes or human plasma are summarized in Tables 41 and 42, respectively.

[7] = Metabolite identification of Compound 18 in human plasma; format: in vitro ADME; set-up: key to Detection in incubation: +: Detected; ND: Not detected; settings: for Detection in incubation: Compound 18 (10 μM), human plasma
Method: Metabolite Identification: Compound 18 (10 μM) was incubated with human plasma (29.0 mg protein/incubation) in incubation mixtures (200 μL final incubation volume) that consisted of 50/50v/v neat plasma (undiluted)/substrate solution in 50 mM phosphate buffer, pH 7.4). The plasma was obtained from male and female donors and contained K2EDTA anticoagulant. Reactions were started by addition of the substrate solution to human plasma and were stopped at four designated time points (0, 30, 60 and 90 min) by the addition of 600 μL of stop reagent (acetonitrile). Stopped incubation samples were centrifuged (e.g., 10,000×g for 10 min at 10° C.) and the supernatant fractions were analyzed by LC-MS/MS to characterize the metabolites formed from compound 18. Additional incubations were performed with the positive control procaine (5 μM) to establish competency of the test system. Samples were analyzed by LC-MS/MS.

[8] = Lipid clearance from mouse tissues after weekly dosing; format: in vivo; settings: 0.25 mg/kg mRNA on days 1, 8, and 15
Method: Repeat dosing of mRNA in an MC3-based LNP for a therapeutic indication would be expected to lead to accumulation of MC3 in tissues, based on the measured half-life. Therefore it was investigated whether the favorable single dose pharmacokinetics of compound 18 were maintained with weekly dosing. Clearance of MC3 and compound 18 from multiple mouse tissues was measured after dosing 0.05 mg/kg mRNA on day 1, 8 and 15 (FIG. 30A). Following dosing with MC3 LNPs, lipid was detected in liver, spleen, plasma, kidney, heart and lung, with liver and spleen containing the largest concentrations (FIG. 30A, for full panel of tissues see FIG. 35A). […] Compound 18 was also detected in plasma, lung, and kidney, but not in heart (FIG. 35A).
In vitro metabolite identification studies using compound 18 were also performed. […] The disappearance of parent compound 18 and the primary metabolite, compound 166, from mouse liver tissue was measured after dosing 0.25 mg/kg mRNA on days 1, 8, and 15.

Row | SMILES | Total Flux 3 hours (luciferase (Luc) mRNA [1]; mice, i.v., 0.5 mg/kg) | Total Flux 6 hours (luciferase (Luc) mRNA [1]; mice, i.v., 0.5 mg/kg) | Total Flux 24 hours (luciferase (Luc) mRNA [1]; mice, i.v., 0.5 mg/kg) | Total Flux Femur (luciferase (Luc) mRNA [2]) | Total Flux Liver (luciferase (Luc) mRNA [2]) | Total Flux Lung (luciferase (Luc) mRNA [2]) | Total Flux Spleen (luciferase (Luc) mRNA [2]) | Fold increase in sC5b-9 levels versus saline (sC5b-9) | EE (%) [3] [%] | Cytokine induction IL-6 (IL-6, IP-10) | Cytokine induction IP-10 (IL-6, IP-10) | pKa [4] | PDI ([5]; Table 1A) | Size (nm) ([5]; Table 1A) | other results
1 | CCCCCCCCCCCCCCCCCCN(CCO)CCCCCCCC(=O)OC(CCCCCCCC)CCCCCCCC [Compound 1, Heptadecan-9-yl 8-((2-hydroxyethyl)(octadecyl)amino)octanoate] | 3.48E+09 | 3.40E+09 | 4.10E+08 | 7.52E+05 | 4.02E+08 | 1.72E+06 | 4.27E+06 | 0.82 | 97.04 | 267.24 | 687.14 | 6.50 | 0.091 | 72.7 | Fold increase in total body Luc Flux relative to MC3 at 6 h (luciferase (Luc) mRNA [1]; Table 3A, i.v. administration): 0.40; sC5b-9 levels relative to saline (sC5b-9; in words): slightly decrease; IL-6 induction (IL-6, IP-10; i.v., in words): highest
2 | CN(Cc1cnc2nc(N)nc(N)c2n1)c1ccc(C(=O)N[C@@H](CCC(=O)O)C(=O)O)cc1 [Methotrexate, methotrexate] |  |  |  |  |  |  |  |  |  |  |  |  |  |  | effect of pretreatment on hEPO protein expression (hEPO mRNA): did not confer any particular beneficial effect
3 | CCCCCC/C=C\COC(=O)CCCCCCCN(CCO)CCCCCCCC(=O)OC/C=C\CCCCCC [Compound 139, Di((Z)-non-2-en-1-yl) 8,8′-((2-hydroxyethyl)azanediyl)dioctanoate] | 3.50E+07 | 1.17E+07 | 5.89E+05 | 5.12E+04 | 8.27E+05 | 5.26E+04 | 2.10E+06 | 0.73 | 78.2 | 23.57 | 153.36 | 7.04 | 0.54 | 174.0 | 
4 | CCCCCCCCC(CC)OC(=O)CCCCCCCN(CCCCCCCC(=O)OC(CCCCCCCC)CCCCCCCC)CCCNc1c(NC)c(=O)c1=O (stereo not shown) [Compound 301, Heptadecan-9-yl 8-((3-((2-(methylamino)-3,4-dioxocyclobut-1-en-1-yl)amino)propyl)(8-oxo-8-(undecan-3-yloxy)octyl)amino)octanoate] |  |  |  |  |  |  |  |  |  |  |  |  |  |  | Clinical Observations [6]: signs of decreased activity; % EE ([3]; N/P 3 (Table 43)): 86%; % EE ([3]; N/P 5.8 (Table 43)): 96%; Diameter ([5]; N/P 3 (Table 43)): 68 nm; PDI ([5]; N/P 3 (Table 43)): 0.09; Diameter ([5]; N/P 5.8 (Table 43)): 69 nm; PDI ([5]; N/P 5.8 (Table 43)): 0.24
5 | CCCCCCCCCCCOC(=O)CCCCCN(CCO)CCCCCC(=O)OCCCCCCCCCCC [Compound 141, Diundecyl 6,6′-((2-hydroxyethyl)azanediyl)dihexanoate] |  | 1.21E+06 | 3.49E+05 | 2.86E+04 | 1.59E+05 | 3.85E+04 | 6.29E+04 | 1.81 | 94.1 | 327.15 | 1072.04 | 7.47 | 0.99 | 91.3 | flux at all timepoints measured (luciferase (Luc) mRNA [1]; mice, i.v., 0.5 mg/kg, 3, 6 and 24 hour, in words): significantly lower flux; Flux in the liver (luciferase (Luc) mRNA [2]; i.v., in words): lowest; Flux in the spleen (luciferase (Luc) mRNA [2]; i.v., in words): lowest
6 | CCCCCCCCC(CCCCCCCC)OC(=O)CCCCCCCN(CCO)CCCCCCCC(=O)O [Compound 166, 8-((8-(Heptadecan-9-yloxy)-8-oxooctyl)(2-hydroxyethyl)amino)octanoic acid] |  |  |  |  |  |  |  |  |  |  |  |  |  |  | Proposed biotransformation (human hepatocytes; Compound 18 (10 μM) with human hepatocytes (1 million cells/mL)): Ester hydrolysis; Detection in incubation (human hepatocytes; 60 min): +; Detection in incubation (human hepatocytes; 120 min): +; Detection in incubation (human hepatocytes; 240 min): +; Proposed biotransformation ([7]; Compound 18 (10 μM) with human plasma (29.0 mg protein/incubation)): Ester hydrolysis; Detection in incubation ([7]; 30 min): +; Detection in incubation ([7]; 60 min): +; Detection in incubation ([7]; 90 min): +; disappearance from mouse liver tissue [8]: rapid clearance
